What was measured:
Type in all cases: physicochemical
[1] = Conversion of the crystalline form in aqueous media
[2] = Competitive slurries of Form A and Form B in a range of solvents
Source text: Form B also has a much higher melting endotherm.

[3] = Solubility profile of solid forms

Structure (SMILES) | conversion to other solid forms in aqueous media [1] | relative stability of crystalline forms in competitive slurries [2] | solubility profile compared with Form A [3]
CC(C)Oc1cc(Oc2cnc(C(=O)N3CCC3)cn2)cc(C(=O)Nc2cc[nH]n2)c1 [Form A, 3-{[5-(Azetidin-1-ylcarbonyl)pyrazin-2-yl]oxy}-5-[(1-methylethyl)oxy]-N-1H-pyrazol-3-ylbenzamide] | convert to the amorphous form |  | 
CC(C)Oc1cc(Oc2cnc(C(=O)N3CCC3)cn2)cc(C(=O)Nc2cc[nH]n2)c1 [Form A′, 3-{[5-(azetidin-1-ylcarbonyl)pyrazin-2-yl]oxy}-5-[(1-methylethyl)oxy]-N-1H-pyrazol-3-ylbenzamide] | convert to the amorphous form |  | 
CC(C)Oc1cc(Oc2cnc(C(=O)N3CCC3)cn2)cc(C(=O)Nc2cc[nH]n2)c1 [Form B, 3-{[5-(azetidin-1-ylcarbonyl)pyrazin-2-yl]oxy}-5-[(1-methylethyl)oxy]-N-1H-pyrazol-3-ylbenzamide] | does not significantly convert to other forms | most stable form | 
CC(C)Oc1cc(Oc2cnc(C(=O)N3CCC3)cn2)cc(C(=O)Nc2cc[nH]n2)c1 [amorphous form, 3-{[5-(azetidin-1-ylcarbonyl)pyrazin-2-yl]oxy}-5-[(1-methylethyl)oxy]-N-1H-pyrazol-3-ylbenzamide] |  |  | different solubility profile
